Type in all cases: cell-based
Assay [1] relates to NCI-H524 human small cell lung cancer cells. Put plainly: H524 assay: inhibition of cell proliferation (CellTiter Glo). Particulars: 2 h treatment, washout, additional 70 h incubation. The essentials: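 Proliferation was measured by CellTiter Glo 70 h after a washout that followed a 2 h pulse of NDC. Doses were an 11-point, two-fold dilution series from 1 uM. IC50 was fitted with a four-parameter model to luminescence-based % inhibition relative to control cells.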
(ATP-based viability assays read luminescence as a measure of living cells.)

Assay [2] has as its target T1, human somatostatin receptor subtype 2 (Homo sapiens, UniProt P30874).
T1 construct: expressed in transfected cells
Put plainly: Functional assay for SSTR2 agonists (HTRF cAMP). Particulars: CHO-K1 cells stably expressing human SST2; NKH477-stimulated cAMP; 20 min at 37 C; read-out: hSST2 cAMP Avg EC50. The essentials: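 Agonist activity read as fall in intracellular cAMP: HTRF 665/620 nm ratio regressed to a cAMP standard curve, EC50 fitted. Stable human SSTR2 CHO-K1 cells exposed 20 min at 37 °C to compound, final concentrations typically 0-10,000 nM.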
Background: Time-resolved FRET reads energy transfer from a long-lived donor to a nearby acceptor.

In a further assay the target is T2, SST2 (Homo sapiens, UniProt P30874).
T2 construct: host or cells: PathHunter CHO-K1 SST2 cells
T2 sequence (P30874 whole entry): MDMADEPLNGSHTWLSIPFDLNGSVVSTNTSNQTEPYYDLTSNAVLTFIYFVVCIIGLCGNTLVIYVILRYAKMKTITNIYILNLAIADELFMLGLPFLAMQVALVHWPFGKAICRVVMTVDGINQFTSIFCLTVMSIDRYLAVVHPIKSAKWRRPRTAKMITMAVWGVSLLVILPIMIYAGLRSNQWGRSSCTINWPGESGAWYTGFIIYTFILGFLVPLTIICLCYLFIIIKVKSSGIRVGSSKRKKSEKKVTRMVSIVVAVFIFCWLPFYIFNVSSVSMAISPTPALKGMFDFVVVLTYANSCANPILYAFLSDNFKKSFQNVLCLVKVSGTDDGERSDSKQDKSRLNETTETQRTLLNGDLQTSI
Put plainly: PathHunter CHO-K1 SST2 Internalization Assay. Particulars: PathHunter CHO-K1 SST2 cells; 90 min at 37 C; luminescence; read-out: Internalization EC50. The method, boiled down: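 Four-parameter nonlinear fits of background-corrected luminescence (duplicate means) gave IC50s. NDCs were serially diluted 1:3 over 11 points from a 10 uM final top concentration and incubated 90 min at 37 C with human SST2 CHO-K1 cells plated 48 h earlier at 2500/well. Beta-Glo read-out developed 60 min at RT.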

T1 sequence (P30874 whole entry): as above

Consider `CC[C@H](C)[C@@H]([C@@H](CC(=O)N1CCC[C@H]1[C@H](OC)[C@@H](C)C(=O)N[C@H](C)[C@@H](O)c1ccccc1)OC)N(C)C(=O)[C@@H](NC(=O)[C@H](C(C)C)N(C)C(=O)OCc1ccc(NC(=O)[C@H](CCCNC(N)=O)NC(=O)[C@@H](NC(=O)CCOCCC(=O)NCCNc2ncc(-c3cc(C)cc(F)c3)c(N3CCC(N)CC3)c2-c2nc3ccc(Cl)cc3[nH]2)C(C)C)c(O[C@H]2[C@H](O)[C@@H](O)[C@H](O)[C@@H](C(=O)N(C)CC(=O)N(C)CC(=O)N(C)CC(=O)O)[C@H]2O)c1)C(C)C` [Compound 236], for which the EC50 in assay [1] was found to be 9.9 nM; in assay [2] it was 0.14 nM; at SST2 it was 5.1 nM.
In the case of `CC[C@H](C)[C@@H]([C@@H](CC(=O)N1CCC[C@H]1[C@H](OC)[C@@H](C)C(=O)N[C@H](C)[C@@H](O)c1ccccc1)OC)N(C)C(=O)[C@@H](NC(=O)[C@H](C(C)C)N(C)C(=O)OCc1ccc(NC(=O)[C@H](C)NC(=O)[C@@H](NC(=O)CCOCCC(=O)N(C)CC(=O)NCCNc2ncc(-c3cc(C)cc(F)c3)c(N3CCC(N)CC3)c2-c2nc3ccc(Cl)cc3[nH]2)C(C)C)c(O[C@@H]2O[C@H](C(=O)NCCO)[C@@H](O)[C@H](O)[C@H]2O)c1)C(C)C` [Compound 206], the 50% effective concentration (EC50) in assay [1] was determined as 14 nM; in assay [2], 0.12 nM; on SST2, 4.5 nM.
As to `CC[C@H](C)[C@@H]([C@@H](CC(=O)N1CCC[C@H]1[C@H](OC)[C@@H](C)C(=O)N[C@H](C)[C@@H](O)c1ccccc1)OC)N(C)C(=O)[C@@H](NC(=O)[C@H](C(C)C)N(C)C(=O)OCc1ccc(NC(=O)[C@H](CCCNC(N)=O)NC(=O)[C@@H](NC(=O)CCOCCC(=O)NCCNc2ncc(-c3cc(C)cc(F)c3)c(N3CCC(N)CC3)c2-c2nc3ccc(Cl)cc3[nH]2)C(C)C)c(O[C@@H]2O[C@H](C(=O)N(C)CCOCCC(=O)O)[C@@H](O)[C@H](O)[C@H]2O)c1)C(C)C` [Compound 231], the results for the concentration for a half-maximal effect (EC50) (in assay [1]; in assay [2]; on SST2) were 49 nM, 0.33 nM and 12 nM, respectively.
Turning to `CC[C@H](C)[C@@H]([C@@H](CC(=O)N1CCC[C@H]1[C@H](OC)[C@@H](C)C(=O)N[C@H](C)[C@@H](O)c1ccccc1)OC)N(C)C(=O)[C@@H](NC(=O)[C@H](C(C)C)N(C)C(=O)OCc1ccc(NC(=O)[C@H](C)NC(=O)[C@@H](NC(=O)CCOCCOCCOCCOCCC(=O)NCCNc2ncc(-c3cc(C)cc(F)c3)c(N3CCC(N)CC3)c2-c2nc3ccc(Cl)cc3[nH]2)C(C)C)cc1C(=O)NCC(=O)O)C(C)C` [Compound 69], the EC50 was found to be 36 nM in assay [1], 0.16 nM in assay [2] and 5.6 nM at SST2.
Turning to `CC[C@H](C)[C@@H]([C@@H](CC(=O)N1CCC[C@H]1[C@H](OC)[C@@H](C)C(=O)N[C@H](C)[C@@H](O)c1ccccc1)OC)N(C)C(=O)[C@@H](NC(=O)[C@H](C(C)C)N(C)C(=O)OCc1ccc(NC(=O)[C@H](CCCNC(N)=O)NC(=O)[C@@H](NC(=O)[C@@H](CS(=O)(=O)O)NC(=O)CCOCCC(=O)NCCNc2ncc(-c3cc(C)cc(F)c3)c(N3CCC(N)CC3)c2-c2nc3ccc(Cl)cc3[nH]2)C(C)C)cc1C(=O)N1CC(N)C1)C(C)C` [Compound 76], the EC50 was 12 nM in assay [1], 0.075 nM in assay [2] and 4.7 nM at SST2.
As to `CC[C@H](C)[C@@H]([C@@H](CC(=O)N1CCC[C@H]1[C@H](OC)[C@@H](C)C(=O)N[C@H](C)[C@@H](O)c1ccccc1)OC)N(C)C(=O)[C@@H](NC(=O)C(C(C)C)N(C)C(=O)OCc1ccc(NC(=O)[C@H](CCCNC(N)=O)NC(=O)[C@@H](NC(=O)CCOCCC(=O)NCCNc2ncc(-c3cc(C)cc(F)c3)c(N3CCC(N)CC3)c2-c2nc3ccc(Cl)cc3[nH]2)C(C)C)c(O[C@@H]2O[C@H](C(=O)N3CCN(CC(=O)O)CC3)[C@@H](O)[C@H](O)[C@H]2O)c1)C(C)C` (stereo partly drawn) [Compound 227], the EC50 came out at 11 nM in assay [1], 0.078 nM in assay [2] and 3.1 nM on SST2.
As for `CC[C@H](C)[C@@H]([C@@H](CC(=O)N1CCC[C@H]1[C@H](OC)[C@@H](C)C(=O)N[C@H](C)[C@@H](O)c1ccccc1)OC)N(C)C(=O)[C@@H](NC(=O)[C@H](C(C)C)N(C)C(=O)OCc1ccc(NC(=O)[C@H](CCCNC(N)=O)NC(=O)[C@@H](NC(=O)[C@H](CCc2nnn[nH]2)NC(=O)CCOCCC(=O)NCCNc2ncc(-c3cc(C)cc(F)c3)c(N3CCC(N)CC3)c2-c2nc3ccc(Cl)cc3[nH]2)C(C)C)cc1)C(C)C` [Compound 176], the EC50 was determined as 620 nM in assay [1], 0.28 nM in assay [2] and 3.7 nM on SST2.
Consider `CC[C@@H](C)[C@H]([C@H](CC(=O)N1CCCC1[C@@H](OC)[C@H](C)C(=O)N[C@@H](C)[C@H](O)c1ccccc1)OC)N(C)C(=O)[C@H](NC(=O)[C@@H](C(C)C)N(C)C(=O)OCc1ccc(NC(=O)[C@H](C)NC(=O)[C@H](NC(=O)CCOCCC(=O)NCCNc2ncc(-c3cc(C)cc(F)c3)c(N3CCC(N)CC3)c2-c2nc3ccc(Cl)cc3[nH]2)C(C)C)c(O[C@H]2O[C@@H](C(=O)O)[C@H](O)[C@@H](O)[C@@H]2O)c1)C(C)C` (stereo partly drawn) [Compound 240], for which the 50% effective concentration (EC50) in assay [1] was found to be 3100 nM; in assay [2], 0.12 nM; on SST2, 6 nM.
Consider `CC[C@H](C)[C@@H]([C@@H](CC(=O)N1CCC[C@H]1[C@H](OC)[C@@H](C)C(=O)N[C@H](C)[C@@H](O)c1ccccc1)OC)N(C)C(=O)[C@@H](NC(=O)[C@H](C(C)C)N(C)C(=O)OCc1ccc(NC(=O)[C@H](C)NC(=O)[C@@H](NC(=O)CCOCCC(=O)NCCNc2ncc(-c3cc(C)cc(F)c3)c(N3CCC(N)CC3)c2-c2cc3ccc(Cl)cc3[nH]2)C(C)C)c(O[C@@H]2O[C@H](C(=O)O)[C@@H](O)[C@H](O)[C@H]2O)c1)C(C)C` [Compound 115], for which the 50% effective concentration (EC50) in assay [1] is 5.1 nM; in assay [2] it was 0.075 nM; at SST2 it was 5.9 nM.
Regarding `CC[C@H](C)[C@@H]([C@@H](CC(=O)N1CCC[C@H]1[C@H](OC)[C@@H](C)C(=O)N[C@H](C)[C@@H](O)c1ccccc1)OC)N(C)C(=O)[C@@H](NC(=O)[C@H](C(C)C)N(C)C(=O)OCc1ccc(NC(=O)[C@H](CCCNC(N)=O)NC(=O)[C@@H](NC(=O)c2cc(OCCOCCC(=O)NCCNc3ncc(-c4cc(C)cc(F)c4)c(N4CCC(N)CC4)c3-c3nc4ccc(Cl)cc4[nH]3)cc(C(=O)NCC(=O)O)c2)C(C)C)cc1)C(C)C` [Compound 160], the values for the EC50 (in assay [1]; in assay [2]; at SST2) were 100 nM, 0.25 nM and 7.4 nM, respectively.
For `CC[C@H](C)[C@@H]([C@@H](CC(=O)N1CCC[C@H]1[C@H](OC)[C@@H](C)C(=O)N[C@H](C)[C@@H](O)c1ccccc1)OC)N(C)C(=O)[C@@H](NC(=O)[C@H](C(C)C)N(C)C(=O)OCc1ccc(NC(=O)[C@H](CCCNC(N)=O)NC(=O)[C@@H](NC(=O)c2cn(CCOCCC(=O)NCCNc3ncc(-c4cc(C)cc(F)c4)c(N4CCC(N)CC4)c3-c3nc4ccc(Cl)cc4[nH]3)nn2)C(C)C)c(O[C@@H]2C[C@H](C(=O)O)[C@@H](O)[C@H](O)[C@H]2O)c1)C(C)C` [Compound 131], in that order: 1600 nM, 0.34 nM and 4.5 nM.
Take `CC[C@H](C)[C@@H]([C@@H](CC(=O)N1CCC[C@H]1[C@H](OC)[C@@H](C)C(=O)N[C@H](C)[C@@H](O)c1ccccc1)OC)N(C)C(=O)[C@@H](NC(=O)[C@H](C(C)C)N(C)C(=O)OCc1ccc(NC(=O)[C@H](C)NC(=O)[C@@H](NC(=O)CCOCCC(=O)NCCN(C)c2ncc(-c3cc(C)cc(F)c3)c(N3CCC(N)CC3)c2-c2nc3ccc(Cl)cc3[nH]2)C(C)C)c(O[C@@H]2O[C@H](C(=O)O)[C@@H](O)[C@H](O)[C@H]2O)c1)C(C)C` [Compound 125]: the EC50 is 580 nM in assay [1], 0.59 nM in assay [2] and 48 nM at SST2.
On to `CC[C@H](C)[C@@H]([C@@H](CC(=O)N1CCC[C@H]1[C@H](OC)[C@@H](C)C(=O)N[C@H](C)[C@@H](O)c1ccccc1)OC)N(C)C(=O)[C@@H](NC(=O)[C@H](C(C)C)N(C)C(=O)OCc1ccc(NC(=O)[C@H](C)NC(=O)[C@@H](NC(=O)CCOCCOCCOCCOCCC(=O)NCCNc2ncc(-c3cc(C)cc(F)c3)c(N3CCC(N)CC3)c2-c2nc3ccc(Cl)cc3[nH]2)C(C)C)c(OCC(=O)O)c1)C(C)C` [Compound 14], for which the figures for the EC50 (in assay [1]; in assay [2]; on SST2) were 19 nM, 0.037 nM and 4.6 nM, respectively.
Regarding `CC[C@H](C)[C@@H]([C@@H](CC(=O)N1CCC[C@H]1[C@H](OC)[C@@H](C)C(=O)N[C@H](C)[C@@H](O)c1ccccc1)OC)N(C)C(=O)[C@@H](NC(=O)[C@H](C(C)C)N(C)C(=O)OCc1ccc(NC(=O)[C@H](CCCNC(N)=O)NC(=O)[C@@H](NC(=O)CCOCCOCCOCCOCCC(=O)NCCNc2ncc(-c3cc(C)cc(F)c3)c(N3CCC(N)CC3)c2-c2nc3ccc(Cl)cc3[nH]2)C(C)C)cc1C(=O)O)C(C)C` [Compound 4], the concentration giving a half-maximal response (EC50) was determined as 740 nM in assay [1], 0.11 nM in assay [2] and 3.8 nM at SST2.
Take `CC[C@H](C)[C@@H]([C@@H](CC(=O)N1CCC[C@H]1[C@H](OC)[C@@H](C)C(=O)N[C@H](C)[C@@H](O)c1ccccc1)OC)N(C)C(=O)[C@@H](NC(=O)[C@H](C(C)C)N(C)C(=O)OCc1ccc(NC(=O)[C@H](CCCNC(N)=O)NC(=O)[C@@H](NC(=O)[C@@H](NC(=O)CCOCCC(=O)NCCNc2ncc(-c3cc(C)cc(F)c3)c(N3CCC(N)CC3)c2-c2nc3ccc(Cl)cc3[nH]2)c2cnn(C)c2)C(C)C)c(OCC(=O)O)c1)C(C)C` [Compound 203]: the 50% effective concentration (EC50) in assay [1] was determined as 71 nM; in assay [2], 0.11 nM; on SST2 it was 7.7 nM.

One may read the EC50 as the concentration that produces a half-maximal response.

The values above are taken from patent US20260007758A1, “SO[…]-2 RECEPTOR (SST2R) NON-PEPTIDE DRUG CONJUGATES AND USES THEREOF” (Crinetics Pharmaceuticals, Inc., priority 2024, published 2026).
